From US20230365566A1, “HETEROCYCLIC AMIDES AND THEIR USE FOR MODULATING SPLICING” (REMIX THERAPEUTICS INC., priority 2020, published 2023)

Key:
Format in all cases: cell-based
[1] = tested on: HTT CJ mRNA; experiment: Gene panel canonical junction qPCR assay, HTT; conditions: protocol of Example 42, read-out: HTT IC50 (decrease in CJ mRNA levels)
Description: (§1) Compounds described herein were used to modulate RNA transcript abundance in cells. The expression of a target mRNA was measured by detecting the formation of an exon-exon junction in the canonical transcript (CJ). A compound mediated exon-inclusion event was detected by observing an increase in formation of a new junction with an alternative exon (AJ). Real-time qPCR assays were used to detect these splicing switches and interrogate the potency of various compounds towards different target genes. A high-throughput real time quantitative PCR (RT-qPCR) assay was developed to measure these two isoforms of the mRNA (CJ and AJ) for an exemplary gene, HTT, together with a control housekeeping gene, GAPDH or GUSB or PPIA, used for normalization. Briefly, the A673 or K562 cell line was treated with various compounds described herein (e.g., compounds of Formula (I)). After treatment, the levels of the HTT mRNA targets were determined from each sample of cell lysate by cDNA synthesis followed by qPCR.
(§2) The A673 cell line was cultured in DMEM with 10% FBS. Cells were diluted with full growth media and plated in a 96-well plate (15,000 cells in 100 ul media per well). The plate was incubated at 37° C. with 5% CO2 for 24 hours to allow cells to adhere. An 11-point 3-fold serial dilution of the compounds was made in DMSO then diluted in media in an intermediate plate. Compounds were transferred from the intermediate plate to the cell plate with the top dose at a final concentration of 10 uM in the well. Final DMSO concentration was kept at or below 0.25%. The cell plate was returned to the incubator at 37° C. with 5% CO2 for an additional 24 hours.
(§3) The K562 cell line was cultured in IMDM with 10% FBS. For K562, cells were diluted with full growth media and plated in either a 96-well plate (50,000 cells in 50 uL media per well) or a 384-well plate (8,000-40,000 cells in 45 uL media per well). An 11-point 3-fold serial dilution of the compounds were made in DMSO then diluted in media in an intermediate plate. Compound was transferred from the intermediate plate to the cell plate with the top dose at a final concentration of 10 uM in the well. Final DMSO concentration was kept at or below 0.25%. Final volume was 100 uL for 96-well plate and 50 uL for 384-well plate. The cell plate was then placed in an incubator at 37° C. with 5% CO2 for 24 hours.
(§4) The data analysis was performed by first determining the ACt vs the housekeeper gene. This ACt was then normalized against the DMSO control (AACt) and converted to RQ (relative quantification) using the 2^(−ΔΔCt) equation. The RQ were then converted to a percentage response by arbitrarily setting an assay window of 3.5 ΔCt for HTT-CJ and an assay window of 9 ΔCt for HTT-AJ. […] The percentage response was then fitted to the 4 parametric logistic equation to evaluate the concentration dependence of compound treatment. The increase in AJ mRNA is reported as AC50 (compound concentration having 50% response in AJ increase) while the decrease in CJ mRNA levels is reported as IC50 (compound concentration having 50% response in CJ decrease).
(§5) Additional studies were carried out for a larger panel of genes using the protocol provided above. The junction between flanking upstream and downstream exons was used to design canonical junction qPCR assays. At least one of the forward primer, reverse primer or the CY5-labeled 5′ nuclease probe (with 3′ quencher such as ZEN/Iowa Black FQ) was designed to overlap with the exon junction to capture the CJ mRNA transcript. BLAST was used to confirm the specificity of the probeset and parameters such as melting temperature, GC content, amplicon size, and primer dimer formation are considered during their design. Data for the decrease in CJ mRNA levels for three exemplary genes (HTT, SMN2, and Target C) analyzed in this panel are reported as IC50 (compound concentration having 50% response in CJ decrease).

[2] = tested on: HTT mRNA alternative junction (AJ); experiment: Splicing RT-qPCR assay, increase of HTT alternative junction (AJ) mRNA; conditions: A673 or K562 cells, 24 hours compound treatment, concentration having 50% response in AJ increase
Description: as §1, §2, §3
(§6) The cells were then gently washed with 50 uL-100 uL cold PBS before proceeding to addition of lysis buffer. 30 uL-50 uL of room temperature lysis buffer with DNAse I (and optionally RNAsin) was added to each well. Cells were shaken/mixed thoroughly at room temperature for 5-10 minutes for lysis to take place and then 3 uL-5 uL of room temperature stop solution was added and wells were shaken/mixed again. After 2-5 minutes, the cell lysate plate was transferred to ice for RT-qPCR reaction setup. The lysates could also be frozen at −80° C. for later use.
(§7) In some cases, a direct lysis buffer was used. An appropriate volume of 3× lysis buffer (10 mM Tris, 150 mM NaCl, 1.5%-2.5% Igepal and 0.1-1 U/uL RNAsin, pH 7.4) was directly added to either K562 or A673 cells in media and mixed by pipetting 3 times. The plates were then incubated at room temperature with shaking/rocking for 20-50 minutes to allow for lysis to take place. After this time, the cell lysate plate was transferred to ice to set up for the RT-qPCR reactions. The lysates could also be frozen at −80° C. for later use.
(§8) To set up 10 uL RT-qPCR reactions, cell lysates were transferred to 384-well qPCR plates containing the master mix according to the table below. The plates were sealed, gently vortexed, and spun down before the run. The volumes were adjusted accordingly in some instances where the reaction was carried in 20 uL. The table below summarizes the components of the RT-qPCR reactions:
(§9) The RT-qPCR reaction was performed using a QuantStudio (ThermoFisher) under the following fast cycling conditions. […]

[3] = tested on: Target C CJ mRNA; experiment: Gene panel canonical junction qPCR assay, Target C; conditions: protocol of Example 42, read-out: Target C IC50 (decrease in CJ mRNA levels)
Description: as §1, §2, §3, §4, §5

[4] = tested on: HTT mRNA canonical junction (CJ); experiment: Splicing RT-qPCR assay, decrease of HTT canonical junction (CJ) mRNA; conditions: A673 or K562 cells, 24 hours compound treatment, concentration having 50% response in CJ decrease
Description: as §1, §2, §3, §6, §7, §8, §9

[5] = tested on: SMN2 CJ mRNA; experiment: Gene panel canonical junction qPCR assay, SMN2; conditions: protocol of Example 42, read-out: SMN2 IC50 (decrease in CJ mRNA levels)
Description: as §1, §2, §3, §4, §5

SMILES	IC50 [1]	IC50 [3]	IC50 [5]	AC50 [2]	AC50 [4]
Cc1cc2c(N3CCNCC3)ccc(C(=O)Nc3cn[nH]c3)c2o1 [Compound 268]	> 10000 nM	> 10000 nM	> 10000 nM	> 10000 nM	> 10000 nM
Cc1cn2cc(NC(=O)c3ccc(N4CCNC(C)C4)c4cc(C)oc34)cc(F)c2n1 (stereo not shown) [Compound 190, N-{8-fluoro-2-methylimidazo[1,2-a]pyridin-6-yl}-2-methyl-4-(3-methylpiperazin-1-yl)-1-benzofuran-7-carboxamide]	1000 to 10000 nM	1000 to 10000 nM	100 to 1000 nM	1000 to 10000 nM	1000 to 10000 nM
Cc1cn2cc(NC(=O)c3ccc(N4CCC(N5CCCC5)C4)c4cc(C)oc34)cc(F)c2n1 (stereo not shown) [Compound 204, 4-[[1,3′-bipyrrolidin]-1′-yl]-N-[8-fluoro-2-methylimidazo[1,2-a]pyridin-6-yl]-2-methyl-1-benzofuran-7-carboxamide]	1000 to 10000 nM	1000 to 10000 nM	< 100 nM	1000 to 10000 nM	1000 to 10000 nM
Cn1cc2ccc(NC(=O)c3ccc(N4CCNCC4)c4cn(C)nc34)cc2n1 [Compound 230]	> 10000 nM	> 10000 nM	> 10000 nM	> 10000 nM	> 10000 nM
Cc1cn2cc(NC(=O)c3ccc(C4CCNCC4)c4cn(C)nc34)cc(F)c2n1 [Compound 208, N-[8-fluoro-2-methylimidazo[1,2-a]pyridin-6-yl]-2-methyl-4-(piperidin-4-yl)indazole-7-carboxamide]	100 to 1000 nM	1000 to 10000 nM	< 100 nM	100 to 1000 nM	100 to 1000 nM
Cc1cn2cc(NC(=O)c3ccc(N4CCNC(C)C4)c4cn(C)nc34)cc(F)c2n1 (stereo not shown) [Compound 228]	100 to 1000 nM	100 to 1000 nM	< 100 nM	100 to 1000 nM	100 to 1000 nM
Cc1cn2cc(NC(=O)c3ccc(N(C)C4CCN(C)CC4)c4cn(C)nc34)cc(F)c2n1 [Compound 245]	100 to 1000 nM	100 to 1000 nM	< 100 nM	100 to 1000 nM	100 to 1000 nM
Cc1cn2cc(NC(=O)c3ccc(C4C[C@@H](C)N[C@@H](C)C4)c4cn(C)nc34)cc(F)c2n1 (stereo partly drawn) [Compound 211, 4-[(cis-)-2,6-dimethylpiperidin-4-yl]-N-[8-fluoro-2-methylimidazo[1,2-a]pyridin-6-yl]-2-methylindazole-7-carboxamide trifluoroacetic acid]	1000 to 10000 nM	> 10000 nM	< 100 nM	1000 to 10000 nM	1000 to 10000 nM
CCN1CCC(c2ccc(C(=O)Nc3cc(F)c4nc(C)cn4c3)c3nn(C)cc23)CC1 [Compound 210, 4-(1-ethylpiperidin-4-yl)-N-[8-fluoro-2-methylimidazo[1,2-a]pyridin-6-yl]-2-methylindazole-7-carboxamide]	100 to 1000 nM	1000 to 10000 nM	< 100 nM	100 to 1000 nM	100 to 1000 nM
Cc1cn2cc(NC(=O)c3ccc(N(C)C4CC(C)(C)NC(C)(C)C4)c4cc(C)oc34)cc(F)c2n1 [Compound 201]	> 10000 nM	> 10000 nM	1000 to 10000 nM	> 10000 nM	> 10000 nM
Cc1nc2c(F)cc(NC(=O)c3ccc(N4CCNCC4)c4cn(C)nc34)cc2s1 [Compound 235]	1000 to 10000 nM	> 10000 nM	< 100 nM	1000 to 10000 nM	1000 to 10000 nM
CCNC1CCN(c2ccc(C(=O)Nc3cc(F)c4nc(C)cn4c3)c3oc(C)cc23)CC1 [Compound 196, 4-[4-(ethylamino)piperidin-1-yl]-N-[8-fluoro-2-methylimidazo[1,2-a]pyridin-6-yl]-2-methyl-1-benzofuran-7-carboxamide]	1000 to 10000 nM	1000 to 10000 nM	< 100 nM	1000 to 10000 nM	1000 to 10000 nM

Second part, led by results:

IC50 [1]	IC50 [3]	IC50 [5]	SMILES	AC50 [2]	AC50 [4]
> 10000 nM	> 10000 nM	> 10000 nM	Cc1cn2nc(NC(=O)c3ccc(N4CCNCC4)c4cn(C)nc34)cc2c(C)n1 [Compound 247]	> 10000 nM	> 10000 nM
100 to 1000 nM	100 to 1000 nM	< 100 nM	Cc1cn2cc(NC(=O)c3ccc(N4CCC(N5CCCC5)C4)c4cn(C)nc34)cc(F)c2n1 (stereo not shown) [Compound 272]	100 to 1000 nM	100 to 1000 nM
1000 to 10000 nM	> 10000 nM	1000 to 10000 nM	Cc1cn2cc(-c3ccc(C(=O)NC4CCNCC4)c4nn(C)cc34)cc(F)c2n1 [Compound 280, 4-{8-fluoro-2-methylimidazo[1,2-a]pyridin-6-yl}-2-methyl-N-(piperidin-4-yl)indazole-7-carboxamide]	1000 to 10000 nM	1000 to 10000 nM
1000 to 10000 nM	1000 to 10000 nM	< 100 nM	Cc1cn2cc(NC(=O)c3ccc(N4CCC(N(C)C)C4)c4cn(C)nc34)cc(Cl)c2n1 (stereo not shown) [Compound 278, N-{8-chloro-2-methylimidazo[1,2-a]pyridin-6-yl}-4-[3-(dimethylamino)pyrrolidin-1-yl]-2-methylindazole-7-carboxamide]	1000 to 10000 nM	1000 to 10000 nM
100 to 1000 nM	1000 to 10000 nM	< 100 nM	Cc1cn2cc(NC(=O)c3ccc(N4CCNC(C)C4)c4cn(C)nc34)cc(Cl)c2n1 (stereo not shown) [Compound 277, N-{8-chloro-2-methylimidazo[1,2-a]pyridine-6-yl}-2-methyl-4-(3-methylpiperazin-1-yl)indazole-7-carboxamide]	100 to 1000 nM	100 to 1000 nM
100 to 1000 nM	100 to 1000 nM	< 100 nM	CCNC1CCN(c2ccc(C(=O)Nc3cc(F)c4nc(C)cn4c3)c3nn(C)cc23)CC1 [Compound 252]	100 to 1000 nM	100 to 1000 nM
1000 to 10000 nM	> 10000 nM	< 100 nM	Cc1cn2cc(NC(=O)c3ccc(N4CCNCC4)c4cn(C)nc34)cc(C(F)(F)F)c2n1 [Compound 275]	1000 to 10000 nM	1000 to 10000 nM
> 10000 nM	> 10000 nM	1000 to 10000 nM	Cc1cn2nc(NC(=O)c3ccc(N4CCNCC4)c4cc(C)oc34)cc2c(C)n1 [Compound 265]	> 10000 nM	> 10000 nM
